From article PMC12951551, “Do Amino-Oxetanes Resemble Amides? A Matched Molecular Pairs Property and Structural Comparison” (Journal of Medicinal Chemistry, 2026)
Values after ≈ are worked out from the molar mass of the structure shown.

Columns and labels:
[1] = Shake flask LogD (SFLogD) assay; type: physicochemical; details: for logD: pH = 7.4, octanol/water shake flask, average of 2 runs unless otherwise stated
Description: (§1) Permeability assay (RRCK): Ralph Russ canine kidney cells were used for permeability measurements using a cell monolayer in 96-transwell format. The detailed assay conditions have been reported previously.9 Test compounds were added to the donor wells and a buffer was added to the receiver wells to start the apical to basolateral transport assay.
(§2) Time 0 and 1.5 h incubation samples were taken for LC-MS/MS analysis. Apparent permeability (Papp) was calculated using the equation below (1), where Area is the surface area of the cell monolayer (0.0625 cm2), CD(0) is the […]

[2] = Permeability assay (RRCK); type: in vitro ADME, canine; details: dog, MDCK, apical to basolateral, average of 2 runs, footnote b = only one replicate
[3] = Kinetic solubility; type: physicochemical; details: for solubility at 24 h: aqueous pH buffer, aqueous buffer, kinetic from dmso stock, 37 °C, 600 µM start; for Kinetic solubility, in words: across acidic, neutral, and basic conditions, compared with benzamide counterpart
Description: Aqueous buffer preparation: pH 3: 50 µL of 1N hydrochloric acid was added to 500 mL of deionized water. The solution was titrated with 1N hydrochloric acid to pH 3, and back titrated with 1N sodium hydroxide. pH 7.4: 100 mM sodium phosphate buffer is made by adding 56.4 g of dibasic sodium phosphate and 10.3 g of monobasic sodium phosphate to 4 L of deionized water. 250 µL of 100 mM sodium phosphate buffer was diluted with 250 µL of deionized water. The solution was titrated with 1N hydrochloric acid to pH 7.4, and back titrated with 1N sodium hydroxide. pH 10: Fisher Scientific pH 10 buffer (SB116-500) containing potassium hydroxide, potassium carbonate, and potassium […]
pH 12.8: 30 mL of 1N NaOH was added to 200 mL of deionized water. The solution was titrated with 1N sodium hydroxide to pH 12.8 and back titrated with 1N hydrochloric acid.
Kinetic solubility: Samples were diluted to 600 µM in the appropriate pH buffer (pH: 3, 7.4, 10) and to 600 µM (assumed 100% solubility) in a DMSO standard. Samples were mixed thoroughly and incubated at 37 °C for 24 h.
Following incubation, pH samples were transferred to a […] PVDF (low binding) and filtered to remove any precipitate. The filtrate was collected and analyzed via MS/MS. The ratio of MS response (DMSO:pH) is taken and multiplied by the initial 600 µM concentration to determine the concentration (solubility) of the samples in pH buffers. […]
as §1, §2

[4] = test system: human hepatocytes; assay: Human Hepatocyte (HHEP) stability assay, clearance; type: in vitro ADME; details: for HHEPG clearance: human hepatocytes, 0.5 million cells/mL, 1 µM test compound
Description: Human Hepatocyte (HHEP) assay: The high throughput HHEP stability assay was performed in a 384-well format (Greiner Bio-One, Monroe, NC). The cryopreserved HHEP were thawed, and re-suspended in Williams E medium (WEM, custom formula number 91-5233EC; Invitrogen, Grand Island, NY) supplemented with HEPES and Na2CO3. The cells were counted using the Trypan Blue exclusion method. A multidrop liquid dispenser (Multidrop DW, Thermo Scientific, Waltham, MA) was used to add the HHEP suspensions to the 384-well plates. The cell plates were covered and transferred to a Cytomat 2 incubator (ThermoFisher) and Biomek i7 (Beckman Coulter, Indianapolis, IN), equipped with three 3position MéCour heat exchangers. Test compounds were diluted on the Biomek i7 with buffer (15 µL) and added to the HHEP (30 µL). The final incubation contained 0.5 million cells/mL and 1 µM test compound in 45 µL total volume containing 0.01% DMSO. The incubation was carried out at 37 °C in the Cytomat 2 incubator (relative humidity ≥ 90%, 5% CO2/95% air). At various time points (2, 4, 11, 45, 75, 120, and 240 min), the plate was pulled out from the incubator by the Biomek i7 robot and put on the MéCour heated exchanger. Samples (3 µL) were transferred to a 384-well plate containing 30 µL acetonitrile with an internal standard (IS) to quench the reaction. Water (60 µL) was added to the quenched plate to dilute the organic solvent content for LC-MS/MS analysis. The plates were centrifuged at 3000 rpm for 10 min at 4 °C, sealed and subsequently analyzed using LC-MS/MS without further transfer of the supernatant.
Propranolol (CYP2D6), midazolam (CYP3A) and triazolam (CYP3A, low clearance), naloxone (UGT2B7), carbazeran (AO), and verapamil (CYP3A, CYP2C8) were used as positive controls. For CYP inhibition study, 1 mM ABT (a pan-cYP inhibitor) was pre-incubated with HHEP for 30 minutes at 37 °C before adding test compounds. Values are n >3 unless […]
as §1, §2

[5] = Experimental pKaH (amine basicity); type: physicochemical; details: Table S2
Description: The influence of basicity is an ongoing rationale for inclusion of the oxetanes in drug candidates, providing the potential to attenuate off-target effects including hERG channel inhibition. […] As comparison against the benzamide analogue is not possible, we instead looked at the head-to-head comparison between amino-oxetane 4a and benzylamine 18 (Figure ).

logD [1] | Papp at 1.5 h [2] [×10⁻⁶ cm/s] | solubility at 24 h ([3]; pH 3) [µM] | solubility at 24 h ([3]; pH 7.4) [µM] | solubility at 24 h ([3]; pH 10) [µM] | HHEPG clearance [4] [μL min^−1 million^−1] | Kinetic solubility, in words [3] | Change in SFlogD of the carbonyl-to-oxetane replacement ([1]; pH 7.4, amino-oxetane versus matched benzamide) | pKa [5] | SMILES | HHEPG clearance, in words ([4]; compared with benzamide counterpart)
3.83 | 32.7 | < 0.1 | < 0.1 | < 0.8 |  |  |  |  | COc1ccc(C(=O)NCC23C[C@H]4C[C@@H](C2)C[C@@H](C3)C4)cc1 [1b, N-(((3R,5R,7R)-Adamantan-1-yl)Methyl)-4-Methoxybenzamide] | 
2.49 | 36.5 | 521 (≈ 140 µg/mL) | 359 (≈ 96.7 µg/mL) | 285 (≈ 76.8 µg/mL) | 62 | higher solubility |  |  | COc1ccc(C2(NCc3ccccc3)COC2)cc1 [2a, N-Benzyl-3-(4-Methoxyphenyl)Oxetan-3-Amine] | 
2.74 | 38.1 | 114 (≈ 27.5 µg/mL) | 91 (≈ 22 µg/mL) | 76 (≈ 18.3 µg/mL) | 30 |  |  |  | COc1ccc(C(=O)NCc2ccccc2)cc1 [2b, N-Benzyl-4-Methoxybenzamide] | 
1 | 32.2 | 461 (≈ 115 µg/mL) | 574 (≈ 144 µg/mL) | 465 (≈ 116 µg/mL) | < 2 |  |  |  | COc1ccc(C(=O)NC(C)C(=O)N(C)C)cc1 (stereo not drawn) [3b, N-(1-(Dimethylamino)-1-Oxopropan-2-yl)-4-Methoxybenzamide] | 
0.823 | 48.3 | 461 (≈ 102 µg/mL) | 574 (≈ 127 µg/mL) | 465 (≈ 103 µg/mL) | < 3 |  |  |  | COc1ccc(C(=O)N2CCOCC2)cc1 [4b, (4-Methoxyphenyl)(Morpholino)Methanone] | 
1.68 | 38.8 | 299 (≈ 103 µg/mL) | 223 (≈ 76.8 µg/mL) | 195 (≈ 67.2 µg/mL) | 38 |  |  |  | COc1ccc(C2(N(C3CC3)C3CCN(C(C)=O)CC3)COC2)cc1 [5a, 1-(4-(Cyclopropyl(3-(4-Methoxyphenyl)Oxetan-3-yl)Amino)Piperidin-1-yl)Ethan-1-One] | 
1.25 | 31.7 | 465 (≈ 147 µg/mL) | 467 (≈ 148 µg/mL) | 299 (≈ 94.6 µg/mL) | < 4 |  |  |  | COc1ccc(C(=O)N(C2CC2)C2CCN(C(C)=O)CC2)cc1 [5b, N-(1-Acetylpiperidin-4-yl)-N-Cyclopropyl-4-Methoxybenzamide] | 
 |  | 509 (≈ 159 µg/mL) | 505 (≈ 158 µg/mL) | 500 (≈ 156 µg/mL) | 112 | higher solubility |  |  | COc1ccc(C2(Nc3ccc(NC(C)=O)cc3)COC2)cc1 [6a, N-(4-((3-(4-Methoxyphenyl)Oxetan-3-yl)Amino)Phenyl)Acetamide] | 
1.92 | 14 | 13 (≈ 3.7 µg/mL) | 10 (≈ 2.84 µg/mL) | 8 (≈ 2.27 µg/mL) | 57 |  |  |  | COc1ccc(C(=O)Nc2ccc(NC(C)=O)cc2)cc1 [6b, N-(4-Acetamidophenyl)-4-Methoxybenzamide] | 
 |  | 7 (≈ 2.35 µg/mL) | 8 (≈ 2.68 µg/mL) | 12 (≈ 4.02 µg/mL) |  |  |  |  | COc1ccc(C2(Nc3ccc4c(c3)OC(F)(F)O4)COC2)cc1 [7a, 2,2-Difluoro-N-(3-(4-Methoxyphenyl)Oxetan-3-yl)Benzo[d][1,3]dioxol-5-Amine] | significantly higher clearance than its benzamide counterpart
3.81 | 28.3 | < 0.1 | < 0.1 | < 0.1 |  |  |  |  | COc1ccc(C(=O)Nc2ccc3c(c2)OC(F)(F)O3)cc1 [7b, N-(2,2-Difluorobenzo[d][1,3]dioxol-5-yl)-4-Methoxybenzamide] | 
2.54 | 37.2 | 412 (≈ 118 µg/mL) | 358 (≈ 103 µg/mL) | 326 (≈ 93.3 µg/mL) | 42 | higher solubility |  |  | COc1ccc(C2(Nc3ccc(OC)nc3)COC2)cc1 [8a, 6-Methoxy-N-(3-(4-Methoxyphenyl)Oxetan-3-yl)Pyridin-3-Amine] | 
2.49 | 20.9 | 50 (≈ 12.9 µg/mL) | 31 (≈ 8.01 µg/mL) | 24 (≈ 6.2 µg/mL) | 13 |  |  |  | COc1ccc(C(=O)Nc2ccc(OC)nc2)cc1 [8b, 4-Methoxy-N-(6-Methoxypyridin-3-yl)Benzamide] | 
1.32 | 43.6 |  |  |  | 13 |  |  |  | c1ccc(Oc2ccc(C3(N4CCOCC4)COC3)cc2)nc1 [9a, 4-(3-(4-(Pyridin-2-yloxy)Phenyl)Oxetan-3-yl)Morpholine] | 
1.08 | 47.2 |  |  |  | < 2 |  |  |  | O=C(c1ccc(Oc2ccccn2)cc1)N1CCOCC1 [9b, Morpholino(4-(Pyridin-2-yloxy)Phenyl)Methanone] | 
1.11 | 37.8 |  |  |  | < 2 |  |  |  | O=C(c1ccc(S(=O)(=O)c2ccccc2)cc1)N1CCOCC1 [10b, Morpholino(4-(Phenylsulfonyl)Phenyl)Methanone] | 
1.66 | < 36.1 |  |  |  | < 2 |  |  |  | FC(F)(F)c1ncc(-c2ccc(C3(N4CCOCC4)COC3)cc2)cn1 [11a, 4-(3-(4-(2-(Trifluoromethyl)Pyrimidin-5-yl)Phenyl)Oxetan-3-yl)Morpholine] | 
1.31 | 43.2 |  |  |  | < 2 |  |  |  | O=C(c1ccc(-c2cnc(C(F)(F)F)nc2)cc1)N1CCOCC1 [11b, Morpholino(4-(2-(Trifluoromethyl)Pyrimidin-5-yl)Phenyl)Methanone] | 
0.331 | 39.3 |  |  |  | 11 |  |  |  | c1cc(C2(N3CCOCC3)COC2)ccc1N1CCOCC1 [12a, 4-(4-(3-Morpholinooxetan-3-yl)Phenyl)Morpholine] | 
0.444 | 36.4 |  |  |  | < 2 |  |  |  | O=C(c1ccc(N2CCOCC2)cc1)N1CCOCC1 [12b, 4-Morpholinonebenzene-4-Yl-Morpholine] | 
 |  |  |  |  |  |  |  | 8.81 | COc1ccc(CNCc2ccccc2)cc1 [S1] | 

SMILES | logD [1] | Papp at 1.5 h [2] [×10⁻⁶ cm/s] | solubility at 24 h ([3]; pH 3) [µM] | solubility at 24 h ([3]; pH 7.4) [µM] | solubility at 24 h ([3]; pH 10) [µM] | HHEPG clearance [4] [μL min^−1 million^−1] | Kinetic solubility, in words [3] | Change in SFlogD of the carbonyl-to-oxetane replacement ([1]; pH 7.4, amino-oxetane versus matched benzamide) | pKa [5] | HHEPG clearance, in words ([4]; compared with benzamide counterpart)
COc1ccc(C2(N[C@@H](C)C(=O)N(C)C)COC2)cc1 [3a, (S)-2-((3-(4-Methoxyphenyl)Oxetan-3-yl)Amino)-N,N-Dimethylpropanamide] | 0.418 | 27.3 | 464 (≈ 129 µg/mL) | 472 (≈ 131 µg/mL) | 458 (≈ 127 µg/mL) | < 3 | solubility comparable to their analogous benzamides | −0.59 |  | 
